Target: T1, hMC2 receptor (Homo sapiens, UniProt Q01718)
T1 construct: host or cells: CRE-bla-CHO-K1 cells, crude membrane fraction
Experiment: hMC2 membrane binding assay ([125I]ACTH (1-39) Tyr23, SPA)
Conditions: crude hMC2R membranes from CRE-bla-CHO-K1 cells expressing hMC2 receptor and hMRAP; 0.2 nM [125I]ACTH (1-39) Tyr23; 1.5 hours at room temperature; read-out: MC2R binding potency
Procedure: Crude membrane fractions are prepared from CRE-bla-CHO-K1 cells stably expressing hMC2 receptor and hMRAP accessory protein (Thermo Fisher). The cells are grown to 85-100% confluence on standard tissue culture dishes in GlutaMax DMEM growth media (Gibco) with following additives: 10% dialyzed FBS (Gemini), 0.1 mM NEAA (Gibco), 25 mM HEPES (Gibco), 5 μg/mL blasticidin (Goldbio), 100 μg/mL zeocin (Invitrogen), 600 μg/mL hygromycin (Goldbio). To prepare membranes, cells are scraped and collected in 1× Dulbecco's phosphate buffered saline (Corning) and then pelleted at 1000 RPM's. The cell pellet is reconstituted in membrane preparation buffer (20 mM HEPES, 6 mM MgCl2 and 1 mM EGTA, protease inhibitor tablets (Pierce) adjusted to pH 7.4), homogenized using a dounce homogenizer, and the resulting membrane fraction is pelleted by centrifugation at 12,000 RPM's. The membrane pellet is resuspended in membrane preparation buffer, snap freezed and stored at −80° C. for later use.
The hMC2 membrane binding assay utilizes the following components: radiolabel [^125I]ACTH (1-39) Tyr23 (PerkinElmer), wheat germ agglutinin coated PVT SPA beads (PerkinElmer), crude hMC2R membranes, and compounds. Briefly hMC2R membranes are incubated with SPA beads in binding assay buffer (50 mM HEPES, 5 mM MgCl2, 1 mM CaCl2, 0.2% BSA, protease inhibitor tablets (Pierce) adjusted to pH7.4) prior to assay initiation. A dose response of compound (the final concentration of compound is typically 0-10,000 nM), SPA membranes, and [^125I]ACTH (1-39) Tyr23 at a final concentration of 0.2 nM is plated in a 96-well assay plate and allowed to incubate 1.5 hours at room temperature. Assay plates are read using a Top Count NXT and Ki values for compounds are determined using a GraphPad Prism 6 non-linear regression analysis.

T1 sequence (Q01718 whole entry): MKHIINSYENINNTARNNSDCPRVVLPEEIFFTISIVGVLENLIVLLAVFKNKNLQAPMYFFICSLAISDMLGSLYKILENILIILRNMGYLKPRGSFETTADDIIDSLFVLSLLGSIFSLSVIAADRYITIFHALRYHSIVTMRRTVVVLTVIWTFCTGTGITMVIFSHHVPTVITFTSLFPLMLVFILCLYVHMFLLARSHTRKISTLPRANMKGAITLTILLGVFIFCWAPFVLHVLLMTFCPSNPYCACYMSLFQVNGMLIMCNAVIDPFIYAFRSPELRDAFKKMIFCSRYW
T1 sequence (Q8TCY5 whole entry partner): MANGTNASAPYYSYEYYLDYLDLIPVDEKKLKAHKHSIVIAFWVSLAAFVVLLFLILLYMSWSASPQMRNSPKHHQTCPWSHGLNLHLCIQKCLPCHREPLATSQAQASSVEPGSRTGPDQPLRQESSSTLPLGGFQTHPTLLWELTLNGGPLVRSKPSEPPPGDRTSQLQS

Compound	Ki [nM]
CCOc1ncccc1-c1ccc(N2CCN(C(=O)C3(C(F)(F)F)CCCC3)C[C@H]2CC)c(O[C@@H]2CCN(C)C2)n1 [1-3, 2′-ethoxy-5-[(2R)-2-ethyl-4-[1-(trifluoromethyl)cyclopentanecarbonyl]piperazin-1-yl]-6-{[(3R)-1-methylpyrrolidin-3-yl]oxy}-2,3′-bipyridine]	10 to 100
CCOc1ncccc1-c1ccc(N2CCN(C(=O)N3CCC[C@H]3C(F)(F)F)C[C@H]2CC)c(O[C@@H]2CCN(C)C2)n1 [1-4, 2′-ethoxy-5-[(2R)-2-ethyl-4-[(2S)-2-(trifluoromethyl)pyrrolidine-1-carbonyl]piperazin-1-yl]-6-{[(3R)-1-methylpyrrolidin-3-yl]oxy}-2,3′-bipyridine]	10 to 100
CCOc1ccc(C(=O)N2CCN(c3ccc(-c4cccnc4OCC)nc3O[C@@H]3CCNC3)[C@H](CC)C2)c(C(F)(F)F)n1 [1-5, 2′-ethoxy-5-[(2R)-4-[6-ethoxy-2-(trifluoromethyl)pyridine-3-carbonyl]-2-ethylpiperazin-1-yl]-6-[(3R)-pyrrolidin-3-yloxy]-2,3′-bipyridine]	< 10
CCOc1ncccc1-c1ccc(N2CCN(C(=O)c3ccc(F)cc3C(F)F)C[C@H]2CC)c(O[C@@H]2CCNC2)n1 [1-6, 5-[(2R)-4-[2-(difluoromethyl)-4-fluorobenzoyl]-2-ethylpiperazin-1-yl]-2′-ethoxy-6-[(3R)-pyrrolidin-3-yloxy]-2,3′-bipyridine]	< 10
CCOc1ncccc1-c1ccc(N2CCN(C(=O)c3ccc(Cl)cc3C(F)(F)F)C[C@H]2CC)c(O[C@@H]2CCNC2)n1 [1-7, 5-[(2R)-4-[4-chloro-2-(trifluoromethyl)benzoyl]-2-ethylpiperazin-1-yl]-2′-ethoxy-6-[(3R)-pyrrolidin-3-yloxy]-2,3′-bipyridine]	< 10
CCOc1ncccc1-c1ccc(N2CCN(C(=O)N3CCC[C@H]3C(F)(F)F)C[C@H]2CC)c(O[C@@H]2CCNC2)n1 [1-8, 2′-ethoxy-5-[(2R)-2-ethyl-4-[(2S)-2-(trifluoromethyl)pyrrolidine-1-carbonyl]piperazin-1-yl]-6-[(3R)-pyrrolidin-3-yloxy]-2,3′-bipyridine]	< 10
CCOc1ccc(C(=O)N2CCN(c3ccc(-c4cccnc4OCC)nc3OCCNC)[C@H](CC)C2)c(C(F)(F)F)n1 [1-9, [2-({2′-ethoxy-5-[(2R)-4-[6-ethoxy-2-(trifluoromethyl)pyridine-3-carbonyl]-2-ethylpiperazin-1-yl]-[2,3′-bipyridin]-6-yl}oxy)ethyl](methyl)amine]	< 10
CCOc1ncccc1-c1ccc(N2CCN(C(=O)c3ccc(F)cc3C(F)F)C[C@H]2CC)c(OCCNC)n1 [1-10, [2-({5-[(2R)-4-[2-(difluoromethyl)-4-fluorobenzoyl]-2-ethylpiperazin-1-yl]-2′-ethoxy-[2,3′-bipyridin]-6-yl}oxy)ethyl](methyl)amine]	< 10
CCOc1ncccc1-c1ccc(N2CCN(C(=O)N3CCC[C@H]3C(F)(F)F)C[C@H]2CC)c(OCCNC)n1 [1-11, [2-({2′-ethoxy-5-[(2R)-2-ethyl-4-[(2S)-2-(trifluoromethyl)pyrrolidine-1-carbonyl]piperazin-1-yl]-[2,3′-bipyridin]-6-yl}oxy)ethyl](methyl)amine]	< 10
CCOc1ccc(C(=O)N2CCN(c3ccc(-c4cccnc4OCC)nc3OCCN)[C@H](CC)C2)c(C(F)(F)F)n1 [1-12, 2-({2′-ethoxy-5-[(2R)-4-[6-ethoxy-2-(trifluoromethyl)pyridine-3-carbonyl]-2-ethylpiperazin-1-yl]-[2,3′-bipyridin]-6-yl}oxy)ethan-1-amine]	< 10
CCOc1ncccc1-c1ccc(N2CCN(C(=O)c3ccc(F)cc3C(F)F)C[C@H]2CC)c(OCCN)n1 [1-13, 2-({5-[(2R)-4-[2-(difluoromethyl)-4-fluorobenzoyl]-2-ethylpiperazin-1-yl]-2′-ethoxy-[2,3′-bipyridin]-6-yl}oxy)ethan-1-amine]	< 10
CCOc1ncccc1-c1ccc(N2CCN(C(=O)N3CCC[C@H]3C(F)(F)F)C[C@H]2CC)c(OCCN)n1 [1-14, 2-({2′-ethoxy-5-[(2R)-2-ethyl-4-[(2S)-2-(trifluoromethyl)pyrrolidine-1-carbonyl]piperazin-1-yl]-[2,3′-bipyridin]-6-yl}oxy)ethan-1-amine]	< 10
CCOc1ncccc1-c1ccc(N2CCN(C(=O)c3ccc(Cl)cc3C(F)(F)F)C[C@H]2CC)c(OCCNC)n1 [1-15, [2-({5-[(2R)-4-[4-chloro-2-(trifluoromethyl)benzoyl]-2-ethylpiperazin-1-yl]-2′-ethoxy-[2,3′-bipyridin]-6-yl}oxy)ethyl](methyl)amine]	< 10
CCOc1ncccc1-c1ccc(N2CCN(C(=O)c3ccc(Cl)cc3C(F)(F)F)C[C@H]2CC)c(OCCN)n1 [1-16, 2-({5-[(2R)-4-[4-chloro-2-(trifluoromethyl)benzoyl]-2-ethylpiperazin-1-yl]-2′-ethoxy-[2,3′-bipyridin]-6-yl}oxy)ethan-1-amine]	< 10
CCOc1ccc(C(=O)N2CCN(c3ccc(-c4cccnc4OCC)nc3OCCN(C)C)[C@H](CC)C2)c(C(F)(F)F)n1 [1-17, [2-({2′-ethoxy-5-[(2R)-4-[6-ethoxy-2-(trifluoromethyl)pyridine-3-carbonyl]-2-ethylpiperazin-1-yl]-[2,3′-bipyridin]-6-yl}oxy)ethyl]dimethylamine]	< 10
CCOc1ccc(C(=O)N2CCN(c3ccc(-c4cccnc4OCC)nc3O[C@H]3CCNC3)[C@H](CC)C2)c(C(F)(F)F)n1 [1-18, 2′-ethoxy-5-[(2R)-4-[6-ethoxy-2-(trifluoromethyl)pyridine-3-carbonyl]-2-ethylpiperazin-1-yl]-6-[(3S)-pyrrolidin-3-yloxy]-2,3′-bipyridine]	< 10
CCOc1ccc(C(=O)N2CCN(c3ccc(-c4cccnc4OCC)nc3OC[C@@H](C)N)[C@H](CC)C2)c(C(F)(F)F)n1 [1-19, (2R)-1-({2′-ethoxy-5-[(2R)-4-[6-ethoxy-2-(trifluoromethyl)pyridine-3-carbonyl]-2-ethylpiperazin-1-yl]-[2,3′-bipyridin]-6-yl}oxy)propan-2-amine]	< 10
CCOc1ccc(C(=O)N2CCN(c3ccc(-c4cccnc4OCC)nc3OC[C@H](C)N)[C@H](CC)C2)c(C(F)(F)F)n1 [1-20, (2S)-1-({2′-ethoxy-5-[(2R)-4-[6-ethoxy-2-(trifluoromethyl)pyridine-3-carbonyl]-2-ethylpiperazin-1-yl]-[2,3′-bipyridin]-6-yl}oxy)propan-2-amine]	< 10
CCOc1ccc(C(=O)N2CCN(c3ccc(-c4cccnc4OCC)nc3O[C@H](C)CN)[C@H](CC)C2)c(C(F)(F)F)n1 [1-21, (2R)-2-({2′-ethoxy-5-[(2R)-4-[6-ethoxy-2-(trifluoromethyl)pyridine-3-carbonyl]-2-ethylpiperazin-1-yl]-[2,3′-bipyridin]-6-yl}oxy)propan-1-amine]	< 10

Other lines, results leading:

Ki [nM]	Compound
< 10	CCOc1ncccc1-c1ccc(N2CC[C@@H](Oc3ccc(Cl)cc3C(F)(F)F)C[C@H]2CC)c(C(=O)N[C@@H]2CCN(C)C2)n1 (single isomer, unassigned) [2-9, 5-[(2R,4R)*-4-[4-chloro-2-(trifluoromethyl)phenoxy]-2-ethylpiperidin-1-yl]-2′-ethoxy-N-[(3R)-1-methylpyrrolidin-3-yl]-[2,3′-bipyridine]-6-carboxamide]
10 to 100	CCOc1ncccc1-c1ccc(N2CC[C@H](Oc3ccc(Cl)cc3C(F)(F)F)C[C@@H]2CC)c(C(=O)N[C@@H]2CCN(C)C2)n1 (single isomer, unassigned) [2-10, 5-[(2S,4S)*-4-[4-chloro-2-(trifluoromethyl)phenoxy]-2-ethylpiperidin-1-yl]-2′-ethoxy-N-[(3R)-1-methylpyrrolidin-3-yl]-[2,3′-bipyridine]-6-carboxamide]
< 10	CCOc1ncccc1-c1ccc(N2CC[C@@H](Oc3ccc(C(F)(F)F)cc3C#N)C[C@H]2CC)c(C(=O)N[C@@H]2CCN(C)C2)n1 (single isomer, unassigned) [2-11]
10 to 100	CCOc1ncccc1-c1ccc(N2CC[C@H](Oc3ccc(C(F)(F)F)cc3C#N)C[C@@H]2CC)c(C(=O)N[C@@H]2CCN(C)C2)n1 (single isomer, unassigned) [2-12]
< 10	CCOc1ncccc1-c1ccc(N2CC[C@@H](Oc3ccc(C(F)(F)F)nc3C#N)C[C@H]2CC)c(C(=O)N[C@@H]2CCN(C)C2)n1 (single isomer, unassigned) [2-18]
< 10	CCOc1ncccc1-c1ccc(N2CC[C@@H](Oc3ccc(Cl)cc3C#N)C[C@H]2CC)c(C(=O)N[C@@H]2CCN(C)C2)n1 (single isomer, unassigned) [2-21]
< 10	CCOc1ncccc1-c1ccc(N2CC[C@@H](Oc3ccc(C(F)(F)F)nc3C#N)C[C@H]2CC)c(C(=O)N[C@H]2CCN(C)C2)n1 (single isomer, unassigned) [2-22]

Reference: US12479825B2, “Melanocortin subtype-2 receptor (MC2R) antagonists and uses thereof” (Crinetics Pharmaceuticals, Inc., priority 2019, dated 2025)
